In ChEMBL document CHEMBL1149145, “Synthesis and selective inhibitory activity of 1-acetyl-3,5-diphenyl-4,5-dihydro-(1H)-pyrazole derivatives against monoamine oxidase” (J Med Chem, 2004):

Assays:
[1] = target: Monoamine oxidase (Bos taurus); test: Inhibition of bovine monoamine oxidase
[2] = target: Amine oxidase [flavin-containing] A (Bos taurus) (UniProt P21398); test: Inhibition of bovine monoamine oxidase A
[3] = target: Amine oxidase [flavin-containing] B (Bos taurus) (UniProt P56560); test: Inhibition of bovine monoamine oxidase B
[4] = target: Amine oxidase [flavin-containing] A (Bos taurus) (UniProt P21398); test: Binding affinity was evaluated against bovine monoamino oxidase A
[5] = target: Amine oxidase [flavin-containing] B (Bos taurus) (UniProt P56560); test: Binding affinity was evaluated against bovine monoamino oxidase B

Amine oxidase [flavin-containing] B (Bos taurus), sequence (P56560 whole entry, looked up): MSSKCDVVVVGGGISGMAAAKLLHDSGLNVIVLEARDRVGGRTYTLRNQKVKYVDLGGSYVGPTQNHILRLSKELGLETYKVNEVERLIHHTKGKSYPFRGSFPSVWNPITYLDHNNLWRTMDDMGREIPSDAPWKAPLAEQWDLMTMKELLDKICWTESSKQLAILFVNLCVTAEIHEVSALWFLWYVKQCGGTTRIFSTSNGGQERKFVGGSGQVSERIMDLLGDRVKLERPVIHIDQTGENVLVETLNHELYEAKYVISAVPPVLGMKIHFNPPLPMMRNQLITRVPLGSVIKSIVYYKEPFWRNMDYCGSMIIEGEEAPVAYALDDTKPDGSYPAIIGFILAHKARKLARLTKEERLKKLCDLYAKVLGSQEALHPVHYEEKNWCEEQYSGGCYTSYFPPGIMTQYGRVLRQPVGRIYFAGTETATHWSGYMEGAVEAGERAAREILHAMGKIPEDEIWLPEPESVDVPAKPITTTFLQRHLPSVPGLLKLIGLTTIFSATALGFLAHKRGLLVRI

Row | Structure (SMILES) | IC50 [1] | IC50 [2] | IC50 [3] | Ki [4] | Ki [5]
1 | COc1ccc(C2CC(c3ccc(O)cc3O)=NN2C(C)=O)cc1 (stereo not drawn) | 10 µM | 0.009 µM | 83 µM | – | –
2 | CC(=O)N1N=C(c2ccc(O)cc2O)CC1c1ccc(Cl)cc1 (stereo not drawn) | 20 µM | 0.01 µM | 120 µM | – | –
3 | CC(=O)N1N=C(c2ccc(O)cc2O)CC1c1ccc(C)cc1 (stereo not drawn) | 9.5 µM | 0.009 µM | 42 µM | – | –
4 | COc1ccc(C2CC(c3ccc(O)cc3)=NN2C(C)=O)c(OC)c1 (stereo not drawn) | 10 µM | 0.01 µM | 20 µM | – | –
5 | COc1ccccc1C1CC(c2ccc(O)cc2O)=NN1C(C)=O (single isomer, unassigned; (+)) | – | – | – | 0.007 µM | 270 µM
6 | COc1ccccc1C1CC(c2ccc(O)cc2O)=NN1C(C)=O (single isomer, unassigned; (-)) | – | – | – | 0.004 µM | 320 µM
7 | COc1ccccc1C1CC(c2ccc(O)cc2O)=NN1C(C)=O (stereo in doubt; 11) | 40 µM | 0.008 µM | 130 µM | 0.008 µM | 600 µM

The next lines start with the values.

Row | IC50 [1] | IC50 [2] | IC50 [3] | Ki [4] | Ki [5] | Structure (SMILES)
8 | 0.2 µM | 0.1 µM | 30 µM | – | – | CC(=O)N1N=C(c2ccc(O)cc2)CC1c1ccc(C)cc1 (stereo not drawn)
9 | 12 µM | 0.01 µM | 25 µM | – | – | CC(=O)N1N=C(c2ccc(O)cc2)CC1c1cccc(Cl)c1 (stereo not drawn)
10 | 9.5 µM | 0.008 µM | 19 µM | – | – | CC(=O)N1N=C(c2ccc(O)cc2)CC1c1cccc(C)c1 (stereo not drawn)
11 | 50 µM | 0.0086 µM | 89 µM | – | – | CC(=O)N1N=C(c2ccc(O)cc2)CC1c1ccccc1Cl (stereo not drawn)
12 | 3.6 µM | 0.009 µM | 7.2 µM | – | – | COc1ccc(C2CC(c3ccc(O)cc3)=NN2C(C)=O)cc1 (stereo not drawn)
13 | 40 µM | 0.1 µM | 40 µM | – | – | CC(=O)N1N=C(c2ccc(O)cc2)CC1c1ccc(Cl)cc1 (stereo not drawn)
14 | – | – | – | 0.002 µM | 330 µM | COc1ccccc1C1CC(c2ccc(O)cc2)=NN1C(C)=O (single isomer, unassigned; (-))
15 | 30 µM | 0.0088 µM | 100 µM | 0.009 µM | 760 µM | COc1ccccc1C1CC(c2ccc(O)cc2)=NN1C(C)=O (stereo in doubt; 6)
16 | – | – | – | 0.006 µM | 1000 µM | COc1ccccc1C1CC(c2ccc(O)cc2)=NN1C(C)=O (stereo in doubt; (+)-6)
